Assay results as given in patent US20140357512A1, “HISTONE DEACETYLASE (HDAC) BIOMARKERS IN MULTIPLE MYELOMA” (priority 2013, published 2014).

Test system: human myeloma cell line MM.1S
Assay: SILAC acetylated-lysine peptide profiling, HDAC inhibitor vs DMSO (light/heavy ratio)
Assay type: cell-based
Description: An embodiment of the invention comprises utilizing the SILAC method in order to quantitate changes in protein expression between two or more populations of cells. The SILAC method is a technique based on mass spectrometry that detects differences in protein abundance among samples using non-radioactive isotopic labeling. The SILAC method is known in the art, and described in detail in Ong et al., “Stable Isotope Labeling by Amino Acids in Cell Culture, SILAC, as a Simple and Accurate Approach to Expression Proteomics”, Molecular & Cellular Proteomics, vol. 1, pp. 376-386 (2002), which is incorporated herein by reference in its entirety.
Briefly, the SILAC method involves growing two populations of cells in cell culture. The first population of cells is grown in growth media containing normal amino acids (“normal media”). The second population of cells is grown in media lacking a standard essential amino acid (such as lysine), but is then supplemented with a non-radioactive, isotopically labeled form of that essential amino acid (such as lysine labeled with ^13C atoms, rather than normal ^12C atoms), which is called “heavy media”. When the two populations of cells are each growing in the medium, they incorporate the amino acids into all of their proteins. The growth of cells maintained in the heavy media is no different from that in normal media. All peptides containing the heavy amino acids are heavier than their normal counterparts. The cells from each of the two populations of cells are lysed. The lysates from each of the two cell populations are then combined. The combined cell lysates are then analyzed by mass spectrometry. Pairs of chemically identical peptides of different stable isotope composition can be differentiated in a mass spectrometer due to their difference in mass. The ratio of peak intensities in the mass spectrum for such peptide pairs reflects the abundance ratio for the two proteins.
This example describes SILAC studies that were performed to compare the effects of three different HDAC inhibitors (Compound A, Compound B, and tubastatin A) to a control on a human multiple myeloma cell line. The HDAC inhibitors were also compared amongst themselves to determine differences in their effects.
A human myeloma cell line MM.1S was grown using either ^12C (light) or ^13C (heavy) lysine containing culture medium. The “heavy” cells were treated with DMSO as the control, and the “light” cells were treated with a single HDAC inhibitor at 37° C. for 6 hours. The heavy and light cells were lysed, and the lysates were mixed in 1:1 ratio and digested with the protease trypsin. The acetylated lysine containing peptides (due to the action of the HDAC inhibitor) in the digested peptide pool were captured by a non-specific anti-acetylated lysine antibody cocktail (the antibodies identify both light and heavy acetylated peptides), and subjected to mass spectrometry analysis in order to identify thousands of individual peptides.
Thousands of peptides were identified in pairs (^12C and ^13C) due to their known mass differences. The amino acid sequence and quantitative ratio (Light/Heavy) of a given peptide in two differentially treated cell lysates were then determined and annotated with their possible protein (gene) sources.
As stated above, three HDAC inhibitors (Compound A, Compound B, and Tubastatin A) were used. Thus, the SILAC method was performed three times, with a different HDAC inhibitor compared to a control each time. Accordingly, there are three pairs of quantitative data in the table below, i.e., Compound A:DMSO, Compound B:DMSO, and Tubastatin A:DMSO. A cut-off of 1.30 fold of change (increase or decrease) was then used to determine “changed” or “+” in the table, and any peptides with a fold of change less than 1.3 fold were determined to be “unchanged” or “0” in the table. Those peptides that were not identified were marked as “NA” in the table. […]

O=C(CCCCCCNC(=O)c1cnc(N(c2ccccc2)c2ccccc2)nc1)NO [Compound A, 2-(diphenylamino)-N-(7-(hydroxyamino)-7-oxoheptyl)pyrimidine-5-carboxamide]
light to heavy ratio (L/H ratio) of acetylated peptide GAGTDEK(ac)TLTR (SEQ ID NO: 621) (Annexin A6 [620], gene ANXA6, inhibitor:DMSO): 0.48 log 2
light to heavy ratio (L/H ratio), log 2 scale, acetylated peptide EFIEK(ac)YDK (SEQ ID NO: 779) (Annexin A6 [644], gene ANXA6, drug:DMSO): 1.00
light to heavy ratio (L/H ratio) of acetylated peptide DDNGK(ac)PYVLPSVR (SEQ ID NO: 579) (Aspartate aminotransferase mitochondrial [73], gene GOT2, inhibitor:DMSO): 0.43 log 2
light to heavy ratio (L/H ratio) of acetylated peptide LMEK(ac)EINGSK (SEQ ID NO: 517) (Atlastin-3 [309], gene ATL3, inhibitor:DMSO): −0.56 log 2
light to heavy ratio (L/H ratio) of acetylated peptide ELK(ac)EIQYGIR (SEQ ID NO: 540) (Branched-chain-amino-acid aminotransferase [337], gene BCAT2, inhibitor:DMSO): 0.39 log 2
light to heavy ratio (L/H ratio), log 2 scale, acetylated peptide ESCSK(ac)[…] (SEQ ID NO: 780) (Bromodomain and PHD finger-containing protein 3 [105], gene BRPF3, drug:DMSO): 1.00
L/H ratio of acetylated peptide FYGDEEK(ac)[…] (SEQ ID NO: 25) (CALR [62], log 2 scale, drug vs DMSO): 0.00
light to heavy ratio (L/H ratio) of acetylated peptide LQVLDPVPK(ac)PVIK (SEQ ID NO: 539) (CD48 antigen [133], gene CD48, inhibitor:DMSO): 0.39 log 2
light to heavy ratio (L/H ratio) of acetylated peptide AGLQVYNK(ac)CWK (SEQ ID NO: 260) (CD59 glycoprotein [63], CD59, drug:DMSO): 0.41 log 2
L/H ratio of acetylated peptide […](ac)R (SEQ ID NO: 26) (CLTC [637], log 2 scale, drug vs DMSO): 0.00
L/H ratio of acetylated peptide FK(ac)ESFAEMNR (SEQ ID NO: 1) (COX4I1 [87], log 2 scale, drug vs DMSO): 0.00
L/H ratio of acetylated peptide […](ac)QLCTIPR (SEQ ID NO: 27) (CREBBP [1216], log 2 scale, drug vs DMSO): 0.00
L/H ratio of acetylated peptide TNK(ac)NK(ac)SSISR (SEQ ID NO: 13) (CREBBP [1595:1597], log 2 scale, drug vs DMSO): 1.00
L/H ratio of acetylated peptide ALK(ac)DLYCHK (SEQ ID NO: 28) (CREM [240], log 2 scale, drug vs DMSO): 0.00
L/H ratio of acetylated peptide LYCPK(ac)CMDVYTPK (SEQ ID NO: 29) (CSNK2B [139], log 2 scale, drug vs DMSO): 0.00
light to heavy ratio (L/H ratio) of acetylated peptide NSFDCFK(ac)K (SEQ ID NO: 605) (Calcium-binding mitochondrial carrier protein Aralar2 [379], gene SLC25A13, inhibitor:DMSO): 0.46 log 2
light to heavy ratio (L/H ratio) of acetylated peptide FVLSSGK(ac)FYGDEEKDK (SEQ ID NO: 281) (Calreticulin [55], CALR, drug:DMSO): 0.58 log 2
light to heavy ratio (L/H ratio) of acetylated peptide VHVIFNYK(ac)GK (SEQ ID NO: 273) (Calreticulin [151], CALR, drug:DMSO): 0.48 log 2
light to heavy ratio (L/H ratio) of acetylated peptide NVLINK(ac)DIR (SEQ ID NO: 257) (Calreticulin [159], CALR, drug:DMSO): 0.39 log 2
light to heavy ratio (L/H ratio) of acetylated peptide TCDLVGEK(ac)GK (SEQ ID NO: 289) (Cation-dependent mannose-6-phosphate receptor [38], M6PR, drug:DMSO): 0.65 log 2
light to heavy ratio (L/H ratio) of acetylated peptide […](ac)GLLK (SEQ ID NO: 569) (Chloride intracellular channel protein 1 [131], gene CLIC1, inhibitor:DMSO): 0.41 log 2
light to heavy ratio (L/H ratio), log 2 scale, acetylated peptide GFSIPECQK(ac)LLPK (SEQ ID NO: 783) (Citrate synthase mitochondrial [103], gene CS, drug:DMSO): 1.00
light to heavy ratio (L/H ratio) of acetylated peptide […](ac)LR (SEQ ID NO: 566) (Citrate synthase mitochondrial [327], gene CS, inhibitor:DMSO): 0.41 log 2
light to heavy ratio (L/H ratio) of acetylated peptide EFALK(ac)HLPNDPMFK (SEQ ID NO: 583) (Citrate synthase mitochondrial [366], gene CS, inhibitor:DMSO): 0.43 log 2
light to heavy ratio (L/H ratio) of acetylated peptide SMSTEGLMK(ac)FVDSK (SEQ ID NO: 330) (Citrate synthase mitochondrial [459], CS, drug:DMSO): 0.00 log 2
light to heavy ratio (L/H ratio) of acetylated peptide VASK(ac)QLEEEDGSR (SEQ ID NO: 591) (Coatomer subunit gamma [238], gene COPG, inhibitor:DMSO): 0.44 log 2
light to heavy ratio (L/H ratio), log 2 scale, acetylated peptide MIYASSK(ac)DAIKK (SEQ ID NO: 763) (Cofilin-1 [121], gene CFL1, drug:DMSO): 0.93
light to heavy ratio (L/H ratio) of acetylated peptide AAEEVEAK(ac)FK (SEQ ID NO: 328) (Coiled-coil-helix-coiled-coil-helix domain-containing protein 3 mitochondrial [173], CHCHD3, drug:DMSO): 0.00 log 2
light to heavy ratio (L/H ratio) of acetylated peptide ASEIGEK(ac)YR (SEQ ID NO: 586) (Conserved hypothetical protein [484], gene KIAA0947, inhibitor:DMSO): 0.44 log 2
light to heavy ratio (L/H ratio) of acetylated peptide DHCVAHK(ac)LFNNLK (SEQ ID NO: 608) (Cytochrome b-c1 complex subunit 6 mitochondrial [85], gene UQCRH, inhibitor:DMSO): 0.46 log 2
light to heavy ratio (L/H ratio) of acetylated peptide LFDYFPK(ac)PYPNSEAAR (SEQ ID NO: 548) (Cytochrome c1 heme protein mitochondrial [177], gene CYC1, inhibitor:DMSO): 0.39 log 2
light to heavy ratio (L/H ratio) of acetylated peptide YFDEK(ac)IAK (SEQ ID NO: 563) (D-beta-hydroxybutyrate dehydrogenase mitochondrial [280], gene BDH1, inhibitor:DMSO): 0.41 log 2
L/H ratio of acetylated peptide FK(ac)[…] (SEQ ID NO: 30) (DAZAP1 [59], log 2 scale, drug vs DMSO): 0.00
L/H ratio of acetylated peptide APTIVGK(ac)SSLNPILFR (SEQ ID NO: 31) (DDOST [189], log 2 scale, drug vs DMSO): 0.00
L/H ratio of acetylated peptide FGNPGEK(ac)LVK (SEQ ID NO: 34) (DDX5 [40], log 2 scale, drug vs DMSO): 0.00
